According to patent EP0933350A1, “Tricyclic retinoids, methods for their production and use” (LIGAND PHARMACEUTICALS INCORPORATED, priority 1994, dated 1996):

Experiments:
[1] = tested on: TPA induction of ODC; test: ornithine decarboxylase (ODC) assay: inhibition of TPA induction of ODC; assay type: cell-based; settings: concentration required to inhibit the TPA induction of ODC by 80 percent
[2] = tested on: RPMI 8226 cell line; test: incorporation of 3H-thymidine (antiproliferative); assay type: cell-based; settings: Homo sapiens, 96 hours, radiolabeled thymidine incorporation, read-out: TdR IC50
[3] = tested on: RPMI 8226 cell line; test: viability (tetrazolium dye, mitochondrial function); assay type: cell-based; settings: Homo sapiens, 96 hours, read-out: MTS IC50
[4] = tested on: ME 180 cell line; test: incorporation of 3H-thymidine (antiproliferative); assay type: cell-based; settings: Homo sapiens, 96 hours, radiolabeled thymidine incorporation, read-out: TdR IC50
[5] = tested on: ME 180 cell line; test: viability (tetrazolium dye, mitochondrial function); assay type: cell-based; settings: Homo sapiens, 96 hours, read-out: MTS IC50
[6] = tested on: AML-193 cell line; test: as above; assay type: cell-based; settings: Homo sapiens, 96 hours, read-out: MTS IC50
[7] = tested on: AML-193 cell line; test: incorporation of 3H-thymidine (antiproliferative); settings: Homo sapiens, 96 h, read-out: TdR IC50 (nM)

Question: With CCOC(=O)/C=C(C)/C=C/C=C1/CCCc2cc3c(cc21)C(C)(C)CCC3(C)C [Compound 101a, Ethyl (2E,4E)-3-methyl-6-[(Z)-3,4,5,6,7,8-hexahydro-5,5,8,8-tetramethyl-2H-anthracen-1-ylidene]hexa-2,4-dienoate] as the molecule, how does the IC80 [1] read?
Answer: 91 nM

Question: Which results are given for CC(/C=C/C=C1/CC(C)(C)Oc2cc3c(cc21)C(C)(C)CCC3(C)C)=C\C(=O)O [Compound 104b, (2E,4E)-3-Methyl-6-(2,3,6,7,8,9-hexahydro-2,2,6,6,9,9-hexamethylbenzo[b]-chromen-4-ylidene)-hexa-2,4-dienoic acid]?
Answer: IC50 [2]: 30 nM; IC50 [3]: 90 nM; IC50 [4]: 90 nM; IC50 [5]: 1000 nM; IC50 [6]: 1000 nM; IC50 [7]: 90 nM
